Results reported in patent publication US20150174059A1, “ORAL CARE” (University of Pretoria, priority 2012, published 2015).
Where a name gives a salt, the structure may show the parent alone. Read-outs that look alike come from different tables or passages of the source. Marks after values point to notes of the source that are not given here. Numbered stars: 1 amine (or outer) side, 2 acyl side, 3 side chain; on linkers, the order of the positions; unused ones are H or OH. Bridge positions count the residues as written; N and C are the ends. Square brackets hold non-standard residues; d marks the D form. Peptide text beside a SMILES is read from it. I, II: the chains in the order shown. Actinocin(9to1) = Cc1c2oc3c(C)ccc(C(=O)[*:1])c3nc-2c(C(=O)[*:2])c(N)c1=O; NMeV = CN[C@H](C(=O)O)C(C)C; Sar = CNCC(=O)O

What was measured:
[1] = system: Candida albicans (ATCC 10231); assay: Microdilution MIC/MBC against Candida albicans; type: cell-based
Protocol: (§1) The microorganisms used in this study included Actinomyces israelii (ATCC 10049), Prevotella intermedia (ATCC 25611), Streptococcus mutans (ATCC 25175), Candia albicans (ATCC 10231) and a strain of Candida albicans resistant to polyenes and azoles (1051604). The bacteria were grown on Casein-peptone Soymeal-peptone Agar medium (CASO) (Merck Chemicals (Pty) Ltd Wadeville, South Africa) under anaerobic conditions in an anaerobic jar with Anaerocult® A (Merck KGaA Darmstadt, Germany), at 37° C. for 72 hours. Actinomyces israelii and S. mutans had CASO agar enriched with 1% sucrose (Merck Chemicals (Pty) Ltd Wadeville, South Africa). The drug susceptible and drug resistant strains of C. albicans were grown on Sabouraud Dextrose 4% Agar (SDA) (Merck Chemicals (Pty) Ltd Wadeville, South Africa), at 37° C. for 72 hours. Sub-culturing was done every second week. Inocula were prepared by suspending bacterial test organisms in their respective broths until turbidity was compatible with McFarland Standard 1 (Merck Chemicals (Pty) Ltd Wadeville, South Africa). Yeast test organisms were suspended in sterile distilled water until turbidity was compatible with McFarland Standard 1 (McFarland, 1907).
The microdilution technique using 96-well micro-plates, as described by Eloff (1998) was used to obtain the MIC and MBC values of the crude extracts against the microorganisms under study. The extracts, dissolved in 10% dimethyl sulphoxide (DMSO) (Merck Chemicals (Pty) Ltd), were serially diluted in broth (enriched for A. israelii and S. mutans) for the bacteria and sterile water for the Candida species; in the 96-well plate adding 48 hour old microorganisms grown at 37° C. The final concentration of extracts ranged from 12.5-0.10 mg/ml and the positive control, 5% chlorhexidine gluconate (CHX) (Dental Warehouse, Sandton, South Africa), ranged from 12.5-3.8×10^−4 mg/ml. Amphotericin B (Davis Diagnostics, Gauteng) an established antifungal drug, ranging from 0.2 mg/ml to 1.5×10^−3 mg/ml, was included for the Candida assays. […]

[2] = system: Candida albicans resistant to polyenes and azoles (1051604); assay: Microdilution MIC/MBC against polyene and azole resistant C. albicans; type: cell-based; settings: Yeast
Protocol: as §1
(§2) The microdilution technique using 96-well micro-plates, as described by Eloff (1998) was used to obtain the MIC and MBC values of the crude extracts against the microorganisms under study. The extracts, dissolved in 10% dimethyl sulphoxide (DMSO) (Merck Chemicals (Pty) Ltd), were serially diluted in broth (enriched for A. israelii and S. mutans) for the bacteria and sterile water for the Candida species; in the 96-well plate adding 48 hour old microorganisms grown at 37° C. The final concentration of extracts ranged from 12.5-0.10 mg/ml and the positive control, 5% chlorhexidine gluconate (CHX) (Dental Warehouse, Sandton, South Africa), ranged from 12.5-3.8×10^−4 mg/ml. Amphotericin B (Davis Diagnostics, Gauteng) an established antifungal drug, ranging from 0.2 mg/ml to 1.5×10^−3 mg/ml, was included for the Candida assays. […] Actinomyces israelii and S. mutans were incubated at 37° C., under anaerobic conditions, for 24 hours; P. intermedia was incubated at 37° C., under anaerobic conditions, for 48 hours; and C. albicans was incubated at 37° C. with p-iodonitrotetrazolium violet (INT) (Sigma-Aldrich, South Africa) already added, under moist aerobic conditions, for 24 hours.
To indicate bacterial growth, 50 μl of (0.2 mg/ml) INT, was added to micro-plate wells and incubated at 37° C., under anaerobic conditions, for 20-60 minutes until a red colour developed. The MIC was defined as the lowest concentration that inhibited the colour change of INT. […] These suspensions were reincubated at 37° C. for 28 hours (48 hours for P. intermedia), under anaerobic conditions. […]

[3] = system: Prevotella intermedia (ATCC 25611); assay: Microdilution MIC/MBC against Prevotella intermedia; type: cell-based; settings: ATCC25611, Gram -ve
Protocol: as §1
(§3) The microdilution technique using 96-well micro-plates, as described by Eloff (1998) was used to obtain the MIC and MBC values of the crude extracts against the microorganisms under study. […]

[4] = system: Actinomyces israelii (ATCC 10049); assay: Microdilution MIC/MBC against Actinomyces israelii; type: cell-based; settings: for MBC / MIC: ATCC10049
Protocol: as §1, §2
To indicate bacterial growth, 50 μl of (0.2 mg/ml) INT, was added to micro-plate wells and incubated at 37° C., under anaerobic conditions, for 20-60 minutes until a red colour developed. The MIC was defined as the lowest concentration that inhibited the colour change of INT. […] These suspensions were reincubated at 37° C. for 28 hours (48 hours for P. intermedia), under anaerobic conditions. The MBC was determined as the lowest concentration of extract which inhibited 100% growth of microorganisms (Cohen et al., 1998).

[5] = system: Streptococcus mutans (ATCC 25175); assay: Microdilution MIC/MBC against Streptococcus mutans; type: cell-based; settings: ATCC25175, Gram +ve
Protocol: as §1, §3

in vitro = type: cell-based; settings: African green monkey
Protocol: (§4) Microtitre plates with Vero and HEp-2 cells (Highveld Biological, Gauteng) were used for testing the four best ethanol extracts for cytotoxicity following the method of Basson (2005). Cytotoxicity was measured by the XTT (Sodium 3′-[1-(phenyl amino-carbonyl)-3,4-tetrazolim]-bis-[4 methoxy-6-nitro]benzene sulfonic acid hydrate) method using the cell proliferation kit II (Roche Diagnostics GmbH). A hundred microliters of Vero and HEp-2 cells (1×10^5 ml) were seeded onto micro-plates and incubated for 24 hrs to allow the cells to attach to the bottom of the plate. Dilution series were made of the extracts and the various concentrations (400-3.1 μg/ml) were added to the micro-plate and incubated for 72 hours. The XTT reagents were added to a final concentration of 0.3 mg/ml and the cells were incubated for one to two hours. The positive drug controls Doxorubicin HCl (Sigma-Aldrich, South Africa) and Actinomycin D (Sigma-Aldrich, South Africa), at concentration ranges of 0.78-0.01 μg/ml, were included in the assay. After incubation the absorbance of the colour was spectrophotometrically quantified using an enzyme-linked immunosorbent assay (ELISA) plate reader (BIO-TEK Power-Wave XS, Weltevreden Park, South Africa), which measured the optical density at 490 nm with a reference wavelength of 690 nm. The assay was carried out in triplicate.

HEp-2 cells = assay: Cytotoxicity, XTT method, HEp-2 cells; type: cell-based; settings: for CC50: Homo sapiens, 72 h, read-out: 50% inhibition of cell growth IC50 + S.D.
Protocol: as §4

Cladosprium cucumerinum = settings: Aurentiacin A isolated from Myrica serrate; cited from earlier work
Bacillus subtilis = settings: Aurentiacin A isolated from Myrica serrate; cited from earlier work
E. coli = settings: Aurentiacin A isolated from Myrica serrate; cited from earlier work
DPPH antioxidant assay = type: biochemical; settings: single component
Protocol: DPPH (2,2-diphenyl-1-picrylhydrazyl hydrate) is a stable free radical with an unpaired valence electron at a nitrogen atom forming a bridge. The free radical can initiate a chain reaction which causes the removal of an electron from another molecule to complete its own orbital. This free valence electron forms the basis of the DPPH assay as samples are tested to determine the scavenging capability of this DPPH radical.
A modified antioxidant assay was used (du Toit et al., 2001). A 2% stock solution of M. piperita and M. alternifolia, a 2 mg/ml stock solution of ascorbic acid (vitamin C) (Sigma-Aldrich (Pty) Ltd, Aston Manor, South Africa) and H. natalensis, a 1 mg/ml stock solution of Quercetin, a 500 μg/ml stock solution of TEAVIGO™ and a synergistic compilation of H. natalensis (3.125 mg/ml), M. alternifolia (0.05% v/v), M. piperita (0.05% v/v) and TEAVIGO™ (2.5 mg/ml) were prepared.
In a 96 well ELISA plate, 20 μl of each sample was added to 200 μl dH2O (except for Quercetin which was added to 200 μl EtOH), serial dilutions were done. After which […] DPPH (Sigma-Aldrich (Pty) Ltd, Aston Manor, South Africa) dissolved in ethanol (40 μg/ml) were added to all wells. All samples were prepared in triplicate. […] The absorbance was measured in an ELISA plate reader at 515 nm (du Toit et al., 2001). […]

[6] = against Actinomyces israelii, NA = Not active, read-out: MBC of the isolated compounds
[7] = against Actinomyces israelii, read-out: MIC of the isolated compounds

With `C[C@@H]1[C@H](O)[C@@H](C)/C=C/C=C/C=C/C=C/C=C/C=C/C=C/[C@H](O[C@@H]2O[C@H](C)[C@@H](O)[C@H](N)[C@@H]2O)C[C@@H]2O[C@](O)(C[C@@H](O)C[C@@H](O)[C@H](O)CC[C@@H](O)C[C@@H](O)CC(=O)O[C@H]1C)C[C@H](O)[C@H]2C(=O)O` [Amphotericin B] the “MIC, C.a” value ([1]; Yeast) was >0.2^c mg/ml, the “MBC, C.a (res)” value [2] was 0.013^c mg/ml and the “MIC, C.a (res)” value [2] was 0.013^c mg/ml.

With `[H]/N=C(\N/C(=N/[H])NCCCCCCNC(=N)NC(=N)Nc1ccc(Cl)cc1)Nc1ccc(Cl)cc1` [Chlorhexidine, chlorhexidine gluconate] the MBC ([1]; ATCC10231, Yeast) was 293 µg/mL, the MIC ([1]; ATCC10231, Yeast) was 352 µg/mL and the MBC [3] was 1040 µg/mL. For the same compound, the MIC [3] was 260 µg/mL, the MBC ([4]; Gram +ve, Actinomyces israelii, read-out: MBC, A.i) was 39 µg/mL and the MIC ([4]; Gram +ve, Actinomyces israelii, read-out: MIC, A.i) was 33 µg/mL. It also gave an MBC [4, 6] of 24 µg/mL, an MIC [4, 7] of 24 µg/mL and an MBC ([4]; Actinomyces israelii, fractions of the ethanolic extract, against A. israelii, Na = Not active, read-out: Average minimum bactericidal concentration (MBC) of the fractions) of 48.8 µg/mL. It also gave an MIC ([4]; Actinomyces israelii, fractions of the ethanolic extract, against A. israelii, read-out: Average minimum inhibitory concentration (MIC) of the fractions) of 18.3 µg/mL, an MBC [5] of 415 µg/mL and an MIC [5] of 61 µg/mL. It also gave an MBC ([2]; Candida albicans) of 293 µg/mL and an MIC ([2]; Candida albicans) of 260 µg/mL.

In the case of `COc1cccc2c1C(=O)c1c(O)c3c(c(O)c1C2=O)C[C@@](O)(C(=O)CO)C[C@@H]3O[C@H]1C[C@H](N)[C@H](O)[C@H](C)O1` [Doxorubicin, Doxorubicin HCl], the IC50 at 72 h (in vitro) is reported as 0.06 µg/mL.

For Cardamomin [Cardamomin (2)], the “MIC of the isolated compounds” value ([4]; against Actinomyces israelii) was greater than 1 mg/mL and the “50% inhibition of cell growth IC50 + S.D.” value (HEp-2 cells) was 52.12 ± 9.41 µg/mL.

With `Cc1c2oc3c(C)ccc(C(=O)N[C@@H]4C(=O)N[C@H](C(C)C)C(=O)N5CCC[C@H]5C(=O)N(C)CC(=O)N(C)[C@@H](C(C)C)C(=O)O[C@@H]4C)c3nc-2c(C(=O)N[C@@H]2C(=O)N[C@H](C(C)C)C(=O)N3CCC[C@H]3C(=O)N(C)CC(=O)N(C)[C@@H](C(C)C)C(=O)O[C@@H]2C)c(N)c1=O` [Actinomycin D] (I: T[dV]P[Sar][NMeV] / II: T[dV]P[Sar][NMeV]; ester I:1-I:C, II:1-II:C; linker I:N-II:N via Actinocin(9to1)) the “50% inhibition of cell growth IC50 + S.D.” value (HEp-2 cells) was 9.6 × 10^−3 ± 0.0003^c μg/ml and the “Cytotoxicity IC50, HEp-2” value (HEp-2 cells; XTT, 72 hours) was 8.5 ng/mL.

In the case of `Oc1cc(O)c2c(c1)OC(c1ccccc1)C(O)C2` (stereo not drawn) [3,5,7-trihydroxyflavan (5), 3,5,7-Trihydroxyflavan], the MIC [4, 7] is reported as greater than 1000 µg/mL, the “MIC of the isolated compounds” value ([4]; against Actinomyces israelii) is reported as greater than 1 mg/mL and the CC50 (HEp-2 cells) is reported as greater than 200 µg/mL.

In the case of `COc1c(C)c(O)cc(O)c1C(=O)/C=C/c1ccccc1` [Aurentiacin A (1), 2′-Me ether derivative of 2′,4′,6′-trihydroxy-3′-methylchalcone], the growth inhibition (Cladosprium cucumerinum) is listed as “inhibits the growth”, the MBC [4, 6] is listed as 62.5 µg/mL and the MIC [4, 7] is listed as 62.5 µg/mL. The growth inhibition (Bacillus subtilis) was “inhibits the growth”, the CC50 (HEp-2 cells) was 6.36 ± 5.09 µg/mL and the growth inhibition (E. coli) was “inhibits the growth”.

For `O=c1c(O)c(-c2ccc(O)c(O)c2)oc2cc(O)cc(O)c12` [Quercetin (4), 3,3′,4′,5,7-pentahydroxyflavone], the “IC50 ± SD, 50% of DPPH that is inhibited” value (DPPH antioxidant assay) was 0.415 ± 0.01095 µg/mL, the MBC [4, 6] was 1000 µg/mL and the MIC [4, 7] was 1000 µg/mL. It also gave a CC50 (HEp-2 cells) of 187 ± 42.6 µg/mL.

For `O=C1O[C@H]([C@@H](O)CO)C(O)=C1O` [Vitamin C, ascorbic acid], the “IC50 ± SD, 50% of DPPH that is inhibited” value (DPPH antioxidant assay) was 1.98 ± 0.006 µg/mL.
